pIC50: −log10 of the molar value.
Tests used:
normal pooled plasma = test: Anticoagulation activity, Activated Partial Thromboplastin Time (APTT) test; settings: concentration required to double clotting time
Description: The following test measures anticoagulant activity of the oligomers of the present invention and utilizes the Activated Partial Thromboplastin Time (APTT) test, with the following procedures.
To an assay cuvette is added 100 µl of normal pooled plasma (George King Biomedical Inc., Kansas) and […] of a solution containing the test compound in aqueous 50 mM Tris hydrochloride at pH 7.5 (0.2 mg of sample in one ml buffer). The sample is placed in a MLA coagulation timer which automatically maintains the sample at 37°C for 2.5 minutes, 100 µl of actin activated cephaloplastin reagent is injected, kept 5 minutes, 100 µl of 35 mM CaCI is injected, and clot formation is determined photometrically and the clotting time recorded. Each example is examined at a variety of concentrations, generally from about .025 mg/ml to about 1 mg/ml, and the clotting times are graphed as a function of concentration. From the graphic results, the concentration required to double clotting time (ICDCT) is calculated by linear interpolation.

[1] = test system: human fixed thrombin activated platelets; test: Platelet aggregation inhibition (fibrinogen-induced); format: cell-based; settings: human fibrinogen added
Description: The method for measuring platelet aggregation inhibition is essentially that of Ruggeri, et al., Proc. Natl. Acad. Sci. USA, 83, 5708-5712 (1986), using formalin-fixed platelets as prepared by Plow, et al., Proc. Natl. Acad. Sci. USA, 79, 3711-3715 (1982). A given amount of the compound of the present invention or other compound to be tested (10 to 100 µl of a 1 mg/ml solution) is incubated at 37°C with 400 µl of human fixed thrombin activated platelets for 2 minutes. 12.5 µl of human fibrinogen solution is added and aggregation is monitored using a platelet aggregation profiler (Model PAP-4). Controls consist of fibrinogen added to incubated platelets and the resulting aggregation is considered as 100%. Percent inhibition in the presence of a given concentration of test compound versus concentration of the compound is plotted and the concentration required to give 50% inhibition (IC50) is determined.

[2] = target: T1, ESb mouse lymphoma heparanase (Mus musculus, UniProt Q6YGZ1); test: Inhibition of heparanase activity (degradation of labeled ECM heparan sulfate); format: biochemical; settings: 24 hours incubation with labeled ECM
T1 construct: endogenous in cells; host or cells: ESb mouse lymphoma cells
T1 sequence (Q6YGZ1 28-535): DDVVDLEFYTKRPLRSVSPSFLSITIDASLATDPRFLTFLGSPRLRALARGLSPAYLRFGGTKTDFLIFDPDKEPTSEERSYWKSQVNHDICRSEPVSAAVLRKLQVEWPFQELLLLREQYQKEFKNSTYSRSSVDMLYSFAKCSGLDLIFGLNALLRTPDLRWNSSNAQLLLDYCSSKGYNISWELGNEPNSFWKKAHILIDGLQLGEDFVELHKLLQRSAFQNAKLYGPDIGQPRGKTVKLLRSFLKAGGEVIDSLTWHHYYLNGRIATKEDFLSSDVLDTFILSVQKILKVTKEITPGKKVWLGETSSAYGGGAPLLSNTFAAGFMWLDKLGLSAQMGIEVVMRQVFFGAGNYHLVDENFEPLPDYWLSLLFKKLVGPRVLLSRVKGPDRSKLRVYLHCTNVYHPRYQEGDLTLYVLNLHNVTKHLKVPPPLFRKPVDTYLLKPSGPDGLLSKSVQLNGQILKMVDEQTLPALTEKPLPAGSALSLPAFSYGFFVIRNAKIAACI
Description: Heparanase is an endoglucuronidase capable of degrading […] (HS) at specific intrachain sites.
The ability of compounds of the present invention to inhibit lymphomacell derived heparanase is tested in the assay system described by Vlodavsky et al., Cancer Research 43, 2704-2711 (1983). […] labeled ECM is incubated for 24 hours with ESb mouse lymphoma heparanase in the presence of various concentrations of the oligomers tested. Degradation of the HS is followed by gel filtration of the supematants. Heparanase activity is expressed as the total amount of labeled low-molecular-weight fragments released from the EMC substrate.

[3] = test system: Vascular smooth muscle cells (VSMC); test: Smooth Muscle Cell DNA Synthesis Assay (3H-thymidine incorporation in response to PDGF); format: cell-based, swine; settings: inhibition of incorporation of 3H-thymidine in response to PDGF (9 ng/ml)
Description: Vascular smooth muscle cells (VSMC) are isolated from swine coronaries obtained from swine hearts (Hatfield Meat Packing, Hatfield, PA) by enzyme dissociation as described by Gunther, et al., in J. Cell. Biol. 92, 289 (1982). Hyaluronidase (0.5 mg/ml) is added to facilitate dispersal. Cells are maintained in Earle's modified minimal essential medium (EMEM) with D-valine substituted for L-valine, supplemented with Hepes (10 mM), fetal bovine serum (FBS) (10%), penicillin (100 U/ml) and streptomycin ( 100 µg/ml).
The VSMC (passage 2) are plated at a density of 3 x 10^4 /cm2 (1x10^4 cells/well of 96 well tray) and after 48 hours of normal growth are arrested by replacement of above media with serum-free media for 48 hours consisting of: EMEM: Hams F12 (1:1), insulin, 5 µg/ml; transferrin, 35 µg/ml; selenite, 5 ng/ml; antibiotics and buffer (as above). The oligomer of the present invention to be tested (.01-10 µM) is added 2 hours prior to addition of porcine platelet derived growth factor (Research and Diagonostics, Minneapolis, MN), or FBS,in fresh serum-free media. Twenty-four hours later the oligomers are again added preceding addition of growth factors by 2 hours. […]
The VSMC are pulsed (5 hours) with ^3H-thymidine (Amersham, Arlington Heights, IL) (1 µCi/well of a 96 well plate; 42 Ci/mmole) added 15-18 hours after the last dose of growth factor. DNA synthesis is determined in NaOH extraction of ethanol/ether fixed cells as reported by Nemecek, et al., PNAS 83, 674 (1986). The cells are washed with phosphate bufferred saline (200 µl/well of 96-well tray. The cells are incubated with trichloroacetic acid (TCA) (10%, 200 ul) for 5 minutes to remove cytoplasmic label. After a rapid wash with cold 10% TCA, cells are fixed with ethanol/ether (2:1, 200 µl/well 5 min) and dried. The labeled DNA is extracted with 0.5 N NaOH (200 µl/well 30 min incubation, room temperature). The extracted DNA is neutralized (0.5 N HCI) and counted by liquid scintillation.
Statistical evaluation is as reported by Bilder, et al., Am. […] IC50 values are calculated by linear regression (RPL of RS1) from % inhibition of a minimum of 3 log fold dilutions of oligomers in the presence of PDGF (9 ng/ml) which give 70-80% of a maximal PDGF response. […] Percent inhibition is calculated by comparing the effect of PDGF alone (vehicle treated cultures + PDGF minus vehicle treated cultures without PDGF) to the effect of oligomers (oligomer + PDGF minus oligomer alone) and divided by the effect of PDGF times 100. i.e., = % inhibition = ((ΔVehicle + PDGF) - (Δoligomer + PDGF)/(Δvehicle + PDGF)) x 100.

Cc1cc(O)c(Cc2cc(O)c(Cc3cc(O)c(Cc4cc(O)c(Cc5cc(O)c(Cc6cc(O)c(Cc7cc(O)c(Cc8cc(O)c(Cc9cc(O)c(Cc%10cc(O)c(Cc%11cc(O)c(Cc%12cc(O)c(Cc%13cc(O)c(Cc%14cc(O)c(Cc%15cc(O)c(Cc%16cc(O)ccc%16CCC(=O)O)cc%15CCC(=O)O)cc%14CCC(=O)O)cc%13CCC(=O)O)cc%12CCC(=O)O)cc%11CCC(=O)O)cc%10CCC(=O)O)cc9CCC(=O)O)cc8CCC(=O)O)cc7CCC(=O)O)cc6CCC(=O)O)cc5CCC(=O)O)cc4CCC(=O)O)cc3CCC(=O)O)cc2CCC(=O)O)cc1CCC(=O)O [Ex 2, Step 26]
APTT ICDCT (normal pooled plasma): 35 µg/mL
Platelet Aggregation IC50 [1]: 250 µg/mL
% Inhibition of Heparanase Activity (5µg/ml) [2]: 68%
pIC50 [3]: 7.40

— patent publication EP0585371B1, “AROMATIC OLIGOMERIC COMPOUNDS USEFUL AS MIMICS OF BIOACTIVE MACROMOLECULES” (RHONE-POULENC RORER INTERNATIONAL (HOLDINGS) INC., priority 1991, dated 1992)
